According to patent EP4722213A1, “NITROGEN-CONTAINING FUNCTIONAL GROUP-SUBSTITUTED PYRIDAZINOPYRIDONE DERIVATIVE AND USE THEREOF” (Sichuan Huiyu Pharmaceutical Co., Ltd., priority 2023, dated 2024):
Read-outs that look alike come from different tables or passages of the source.

How the values were obtained:
Format in all cases: in vitro ADME
CYP3A4 = target: T1, CYP3A4 (Homo sapiens, UniProt P08684); assay: Inhibition of hepatic drug-metabolizing enzymes in human liver microsomes (substrates midazolam and testosterone)
T1 construct: human liver microsomes were used as the CYP450 enzyme source; from tissue; host or cells: human liver microsomes
T1 sequence (P08684 whole entry): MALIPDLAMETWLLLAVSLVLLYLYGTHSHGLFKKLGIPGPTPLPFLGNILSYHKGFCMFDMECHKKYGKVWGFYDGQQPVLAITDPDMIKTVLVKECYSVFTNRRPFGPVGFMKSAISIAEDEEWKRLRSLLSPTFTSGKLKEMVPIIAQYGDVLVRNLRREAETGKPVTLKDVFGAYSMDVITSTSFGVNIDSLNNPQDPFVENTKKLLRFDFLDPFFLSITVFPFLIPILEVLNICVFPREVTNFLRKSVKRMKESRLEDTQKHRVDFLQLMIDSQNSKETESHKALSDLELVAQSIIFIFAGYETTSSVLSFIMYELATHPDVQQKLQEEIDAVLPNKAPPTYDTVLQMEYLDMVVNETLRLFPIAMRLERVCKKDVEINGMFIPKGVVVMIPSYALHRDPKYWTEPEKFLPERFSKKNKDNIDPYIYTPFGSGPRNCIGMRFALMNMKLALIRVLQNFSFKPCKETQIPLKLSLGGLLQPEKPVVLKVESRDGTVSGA
Description: (§1) The main site of drug metabolism is the liver, and the main component of the mixed-function oxidase system present in the liver is the CYP450 enzyme. This enzyme system causes most clinically observed drug-drug interactions, which in turn leads to an increased incidence of adverse drug reactions. CYP450 is a group of supergene family composed of many isozymes, wherein CYP3A4 acts as a major metabolizing enzyme and is involved in the metabolism of nearly half of clinically used drugs. Similarly, CYP2C9 and CYP2C19 also act as important metabolizing enzymes and are involved in the metabolism of various drugs clinically. Therefore, evaluating the risk of drug-drug interactions by testing the inhibitory activity of compounds on CYP450 enzymes at an early stage can improve the safety of medication use.
(§2) In the present disclosure, human liver microsomes were used as the CYP450 enzyme source. The specific probe substrates for each CYP isoenzyme (wherein CYP3A4 used two substrates, midazolam and testosterone, denoted as CYP3A4-M and CYP3A4-T respectively) were incubated with a series of concentrations of the test compound in the presence of the cofactor NADPH. The production amount of metabolites of probe substrates in the incubation system was determined by LC-MS/MS, and the IC50 values of the test compound against each CYP450 enzyme subtype were calculated to evaluate its inhibitory effect on each CYP450 enzyme subtype. During the experiment, 49 µL of PBS, 50 µL of probe substrate, and 50 µL of human liver microsome working solution were sequentially added to the incubation system, followed by the addition of 1 µL of the test compound working solution at each concentration, and the mixture was mixed well. After pre-incubation at 37°C for 5 min, 50 µL of NADPH was added to initiate the reaction. After incubation for the corresponding time, an appropriate amount of ice-cold acetonitrile containing an internal standard was added to terminate the reaction. The mixture was vortexed to mix well, centrifuged, and the supernatant was taken. The supernatant was injected into LC-MS/MS to determine the production amount of metabolites of the probe substrate. Taking the enzyme activity at the 0-concentration point (characterized by the production amount of metabolites) as 100%, the percentage of residual enzyme activity of metabolites at different concentrations of the test compound was calculated. IC50 was calculated by the residual enzyme activity using Graphpad Prism software.

CYP2C19 = target: T2, CYP2C19 (Homo sapiens, UniProt P33261); assay: Inhibition of hepatic drug-metabolizing enzymes in human liver microsomes
T2 construct: human liver microsomes were used as the CYP450 enzyme source; from tissue; host or cells: human liver microsomes
T2 sequence (P33261 whole entry): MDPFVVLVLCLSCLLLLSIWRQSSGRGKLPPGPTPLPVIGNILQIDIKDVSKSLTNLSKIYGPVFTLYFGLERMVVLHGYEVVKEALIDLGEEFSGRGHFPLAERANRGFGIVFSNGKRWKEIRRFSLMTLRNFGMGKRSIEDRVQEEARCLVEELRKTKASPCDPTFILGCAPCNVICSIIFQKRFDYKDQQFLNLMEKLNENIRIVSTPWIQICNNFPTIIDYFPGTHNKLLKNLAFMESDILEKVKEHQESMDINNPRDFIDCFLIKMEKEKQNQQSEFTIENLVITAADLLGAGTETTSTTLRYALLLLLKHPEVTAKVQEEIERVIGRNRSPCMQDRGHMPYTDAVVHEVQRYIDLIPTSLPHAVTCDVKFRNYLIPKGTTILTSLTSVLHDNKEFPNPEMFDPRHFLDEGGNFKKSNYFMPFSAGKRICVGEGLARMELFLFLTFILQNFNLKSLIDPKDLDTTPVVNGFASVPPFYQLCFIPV
Description: as §1, §2

CYP2C9 = target: T3, CYP2C9 (Homo sapiens, UniProt P11712); assay: as above
T3 construct: human liver microsomes were used as the CYP450 enzyme source; from tissue; host or cells: human liver microsomes
T3 sequence (P11712 whole entry): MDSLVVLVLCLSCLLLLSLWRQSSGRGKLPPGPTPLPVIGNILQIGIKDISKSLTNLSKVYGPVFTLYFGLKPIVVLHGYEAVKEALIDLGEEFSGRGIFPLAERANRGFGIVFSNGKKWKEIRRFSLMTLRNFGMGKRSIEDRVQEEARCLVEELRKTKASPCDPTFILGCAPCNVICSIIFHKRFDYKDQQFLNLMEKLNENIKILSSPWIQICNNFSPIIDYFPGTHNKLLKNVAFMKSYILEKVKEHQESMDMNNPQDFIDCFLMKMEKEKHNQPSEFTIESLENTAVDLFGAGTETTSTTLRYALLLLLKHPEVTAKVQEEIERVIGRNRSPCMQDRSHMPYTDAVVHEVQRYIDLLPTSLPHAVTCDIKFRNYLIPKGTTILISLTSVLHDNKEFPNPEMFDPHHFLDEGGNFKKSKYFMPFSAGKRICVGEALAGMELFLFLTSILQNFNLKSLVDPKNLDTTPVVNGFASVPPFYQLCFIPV
Description: as §1, §2

[1] = substrate midazolam, read-out: Inhibitory activity on drug-metabolizing enzymes (IC50, µM) CYP3A4-M
[2] = substrate testosterone, read-out: Inhibitory activity on drug-metabolizing enzymes (IC50, µM) CYP3A4-T
[3] = human liver microsomes, read-out: Inhibitory activity on drug-metabolizing enzymes (IC50, µM) CYP2C19
[4] = human liver microsomes, read-out: Inhibitory activity on drug-metabolizing enzymes (IC50, µM) CYP2C9

Structure (SMILES): CCN1CCN(c2nnc(N[C@H](C)c3cccc(C(F)F)c3F)c3cn(N4CCOCC4)c(=O)cc23)CC1 [Example 109, (R)-4-((1-(3-(difluoromethyl)-2-fluorophenyl)ethyl)amino)-1-(4-ethylpiperazin-1-yl)-6-morpholinopyrido[3 ,4-d]pyridazin-7(6H)-one]
- IC50 (CYP3A4; [1]): > 10 µM
- IC50 (CYP3A4; [2]): > 10 µM
- IC50 (CYP2C19; [3]): > 10 µM
- IC50 (CYP2C9; [4]): > 10 µM

Structure (SMILES): CNc1nnc(N[C@H](C)c2cccc(C(F)(F)F)c2C)c2cn(C3CC3)c(=O)cc12 [Example 52, (R)-6-cyclopropyl-4-((1-(2-methyl-3-(trifluoromethyl)phenyl)ethyl)amino)-1-(methylamino)pyrid o[3,4-d]pyridazin-7(6H)-one]
- IC50 (CYP3A4; [1]): > 10 µM
- IC50 (CYP3A4; [2]): > 10 µM
- IC50 (CYP2C19; [3]): > 10 µM
- IC50 (CYP2C9; [4]): > 10 µM

Structure (SMILES): CNc1nnc(N[C@H](C)c2cccc(C(F)F)c2F)c2cn(C3(C)CC3)c(=O)cc12.O=CO [Example 9, (R)-4-((1-(3-(difluoromethyl)-2-fluorophenyl)ethyl)amino)-1-(methylamino)-6-(1-methylcyclopropyl) pyrido[3,4-d]pyridazin-7(6H)-one formate]
- IC50 (CYP3A4; [1]): > 10 µM
- IC50 (CYP3A4; [2]): > 10 µM
- IC50 (CYP2C19; [3]): > 10 µM
- IC50 (CYP2C9; [4]): > 10 µM

Structure (SMILES): CC(C)N1CCN(c2nnc(N[C@H](C)c3cccc(C(F)F)c3F)c3cn(C4(C)CC4)c(=O)cc23)CC1 [Example 217, (R)-4-((1-(3-(difluoromethyl)-2-fluorophenyl)ethyl)amino)-1-(4-isopropylpiperazin-1-yl)-6-(1-methylcyclopropyl) pyrido[3,4-d]pyridazin-7(6H)-one]
- IC50 (CYP3A4; [1]): > 10 µM
- IC50 (CYP3A4; [2]): > 10 µM
- IC50 (CYP2C19; [3]): > 10 µM
- IC50 (CYP2C9; [4]): > 10 µM

Structure (SMILES): C[C@@H](Nc1nnc(N2CCN(C)CC2)c2cc(=O)n(C3CCC3)cc12)c1cccc(C(F)F)c1F [Example 88, (R)-6-cyclobutyl-4-((1-(3-(difluoromethyl)-2-fluorophenyl)ethyl)amino)-1-(4-methylpiperazin-1-yl)pyrido[3,4-d]pyridazin-7(6H)-one]
- IC50 (CYP3A4; [1]): > 10 µM
- IC50 (CYP3A4; [2]): > 10 µM
- IC50 (CYP2C19; [3]): > 10 µM
- IC50 (CYP2C9; [4]): > 10 µM

Structure (SMILES): C[C@@H](Nc1nnc(N2CCN(C)CC2)c2cc(=O)n(C3(C)CC3)cc12)c1cccc(C(F)F)c1F.O=CO [Example 80, (R)-4-((1-(3-(difluoromethyl)-2-fluorophenyl)ethyl)amino)-6-(1-methylcyclopropyl)-1-(4-methylpiperazin-1-yl)pyrido[3,4-d]pyridazin-7(6H)-one formate]
- IC50 (CYP3A4; [1]): > 10 µM
- IC50 (CYP3A4; [2]): > 10 µM
- IC50 (CYP2C19; [3]): > 10 µM
- IC50 (CYP2C9; [4]): > 10 µM

Structure (SMILES): CCN1CCN(c2nnc(N[C@H](C)c3cccc(C(F)F)c3F)c3cn(C4(C)CC4)c(=O)cc23)CC1 [Example 216, (R)-4-((1-(3-(difluoromethyl)-2-fluorophenyl)ethyl)amino)-1-(4-ethylpiperazin-1-yl)-6-(1-methylcyclopropyl) pyrido[3,4-d]pyridazin-7(6H)-one]
- IC50 (CYP3A4; [1]): > 10 µM
- IC50 (CYP3A4; [2]): > 10 µM
- IC50 (CYP2C19; [3]): > 10 µM
- IC50 (CYP2C9; [4]): > 10 µM

Structure (SMILES): C[C@@H](Nc1nnc(N2CCN(C)CC2)c2cc(=O)n(C3CC3)cc12)c1cccc(C(F)F)c1F [Example 77]
- IC50 (CYP3A4; Inhibitory activity on drug-metabolizing enzymes (IC50, µM) CYP3A4-M, substrate midazolam): 7.81 µM
- IC50 (CYP3A4; Inhibitory activity on drug-metabolizing enzymes (IC50, µM) CYP3A4-T, substrate testosterone): > 10 µM
- IC50 (CYP2C19): > 10 µM
- IC50 (CYP2C9): > 10 µM

Structure (SMILES): C[C@@H](Nc1nnc(N2CCN(C3CCCC3)CC2)c2cc(=O)n(N3CCOCC3)cc12)c1cccc(C(F)F)c1F [Example 120, (R)-4-((1-(3-(difluoromethyl)-2-fluorophenyl)ethyl)amino)-1-(4-cyclopentylpiperazin-1-yl)-6-morpholinopyrido[3 ,4-d]pyridazin-7(6H)-one]
- IC50 (CYP3A4; [1]): > 10 µM
- IC50 (CYP3A4; [2]): > 10 µM
- IC50 (CYP2C19; [3]): > 10 µM
- IC50 (CYP2C9; [4]): > 10 µM

Structure (SMILES): C[C@@H](Nc1nnc(N2CCN(C)CC2)c2cc(=O)n(N3CCOCC3)cc12)c1cccc(C(F)F)c1F [Example 110, (R)-4-((1-(3-(difluoromethyl)-2-fluorophenyl)ethyl)amino)-1-(4-methylpiperazin-1-yl)-6-morpholinopyrido[3 ,4-d]pyridazin-7(6H)-one]
- IC50 (CYP3A4; [1]): > 10 µM
- IC50 (CYP3A4; [2]): > 10 µM
- IC50 (CYP2C19; [3]): > 10 µM
- IC50 (CYP2C9; [4]): > 10 µM

Structure (SMILES): CCN1CCN(c2nnc(N[C@H](C)c3cccc(C(F)F)c3F)c3cn(C4CC(F)(F)C4)c(=O)cc23)CC1 [Example 98, (R)-6-(3,3-difluorocyclobutyl)-4-((1-(3-(difluoromethyl)-2-fluorophenyl)ethyl)amino)-1-(4-ethylpiperazin-1-yl)pyrido[3,4-d]pyridazin-7(6H)-one]
- IC50 (CYP3A4; [1]): > 10 µM
- IC50 (CYP3A4; [2]): > 10 µM
- IC50 (CYP2C19; [3]): > 10 µM
- IC50 (CYP2C9; [4]): > 10 µM

Structure (SMILES): CC(C)Nc1nnc(N[C@H](C)c2cccc(C(F)F)c2F)c2cn(C3(C)CC3)c(=O)cc12.O=CO [Example 12, (R)-4-((1-(3-(difluoromethyl)-2-fluorophenyl)ethyl)amino)-1-(isopropylamino)-6-(1-methylcyclopropyl) pyrido[3,4-d]pyridazin-7(6H)-one formate]
- IC50 (CYP3A4; [1]): > 10 µM
- IC50 (CYP3A4; [2]): > 10 µM
- IC50 (CYP2C19; [3]): > 10 µM
- IC50 (CYP2C9; [4]): > 10 µM

Structure (SMILES): C[C@@H](Nc1nnc(N2CCN(C(C)(C)C)CC2)c2cc(=O)n(C3(C)CC3)cc12)c1cccc(C(F)F)c1F.O=CO [Example 222, (R)-1-(4-(tert-butyl)piperazin-1-yl)-4-((1-(3-(difluoromethyl)-2-fluorophenyl)ethyl)amino)-6-(1-methylcyclopropyl) pyrido[3,4-d]pyridazin-7(6H)-one formate]
- IC50 (CYP3A4; [1]): > 10 µM
- IC50 (CYP3A4; [2]): > 10 µM
- IC50 (CYP2C19; [3]): > 10 µM
- IC50 (CYP2C9; [4]): > 10 µM

Structure (SMILES): CC(C)N1CCN(c2nnc(N[C@H](C)c3cccc(C(F)F)c3F)c3cn(N4CCOCC4)c(=O)cc23)CC1 [Example 111, (R)-4-((1-(3-(difluoromethyl)-2-fluorophenyl)ethyl)amino)-1-(4-isopropylpiperazin-1-yl)-6-morpholinopyrido[3 ,4-d]pyridazin-7(6H)-one]
- IC50 (CYP3A4; [1]): > 10 µM
- IC50 (CYP3A4; [2]): > 10 µM
- IC50 (CYP2C19; [3]): > 10 µM
- IC50 (CYP2C9; [4]): > 10 µM

Structure (SMILES): CCN1CCN(c2nnc(N[C@H](C)c3cccc(C(F)F)c3F)c3cn(C4CCC4)c(=O)cc23)CC1 [Example 112, (R)-6-cyclobutyl-4-((1-(3-(difluoromethyl)-2-fluorophenyl)ethyl)amino)-1-(4-ethylpiperazin-1-yl)pyrido[3,4-d]pyridazin-7(6H)-one]
- IC50 (CYP3A4; [1]): > 10 µM
- IC50 (CYP3A4; [2]): > 10 µM
- IC50 (CYP2C19; [3]): > 10 µM
- IC50 (CYP2C9; [4]): > 10 µM

Structure (SMILES): CNc1nnc(N[C@H](C)c2cccc(C(F)(F)F)c2C)c2cn(C3(C)CC3)c(=O)cc12 [Example 73, (R)-4-((1-(2-methyl-3-(trifluoromethyl)phenyl)ethyl)amino)-1-(methylamino)-6-(1-methylcyclopropyl) pyrido[3,4-d]pyridazin-7(6H)-one]
- IC50 (CYP3A4; [1]): > 10 µM
- IC50 (CYP3A4; [2]): > 10 µM
- IC50 (CYP2C19; [3]): > 10 µM
- IC50 (CYP2C9; [4]): > 10 µM
